Assay results taken from PMC4081582, “Enhancing Effect of Borneol and Muscone on Geniposide Transport across the Human Nasal Epithelial Cell Monolayer” (PLoS ONE, 2014).

Columns and labels:
HNECs [1] = experiment: Membrane fluidity of HNECs by FRAP; type: cell-based, human
Experimental: The cells were seeded on cell plate at a density of 5×10^4 cells·cm^−2. The above formulation groups were added and the plates were incubated for 3 h at 37 °C in a 5% CO2 incubator. Cells were rinsed with HBSS and stained with NBD-C6-HPC at 2 µg·mL^−1 for 30 min.
A method of fluorescence recovery after photobleaching (FRAP) was used here. After the definition of line scanning position, length and photobleaching position, the monolayer was visualized by a Confocal Laser Scanning Microscope under the following conditions: excitation wavelength of 488 nm, emission wavelength of 530 nm, laser power for fluorescence bleaching of 100%, bleaching time of 0.7 s, scanning frequency of 1.65 s and the total scanning time of 100 s. The fluorescence intensity time-variation at the photobleaching position was recorded and image formation was obtained by confocal tomoscanning.
The membrane fluidity was represented by fluorescence recovery rate (R) which was calculated with the following equation (4): [drawing 4] where F0 is the instant fluorescence value after photobleaching, F1 is the fluorescence value before photobleaching and F2 is the fluorescence recovery value after photobleaching.

[2] = Transport of geniposide across the HNEC monolayer; type: in vitro ADME, human; conditions: human
Experimental: (§1) When HNECs reached approximately 80–90% confluence, the cells were detached with trypsin and were seeded at a density of 2×10^5 cells·cm^−2 on PET inserts. The culture medium was BEGM:DMEM/F12 (1∶1) in both sides at 37 °C in an atmosphere of 5% CO2 and 95% relative humidity, which was first changed after 24 h of seeding and then every 2 days.
(§2) The transport experiments were carried out when transepithelial electrical resistance (TEER) value was higher than 500 Ω·cm^2. The transport studies were performed by initially incubating the monolayers in Hanks balanced salt solution (HBSS) for 30 min at 37 °C. To measure apical (A) → basolateral (B) transport, 0.5 mL of drug solution and 1.5 mL of HBSS were added in the A and B sides, respectively. Basolateral (B) → apical (A) transport was evaluated by adding 1.5 mL of drug solution in B side and 0.5 mL of HBSS in A side.
(§3) Geniposide transport was studied at three concentrations: 25, 50 and 100 µg·mL^−1. The effect of borneol was studied at 27.8, 55.6 and 111.2 µg·mL^−1 concentrations in the presence of 50 µg·mL^−1 geniposide. The effect of muscone was studied at 4.17, 8.34 and 16.68 µg·mL^−1 concentrations in the presence of 50 µg·mL^−1 geniposide. Finally, the effects of both borneol and muscone were studied at the concentrations mentioned above in the presence of 50 µg·mL^−1 geniposide.
(§4) Each measurement was evaluated in triplicate. Cells were incubated in a 37 °C shaking incubator. Samples of 200 µL were taken from the apical side (to study B → A transport) and samples of 600 µL were taken from the basal side (to study A → B transport) at 30, 60, 90, 120, 150, 180 min time intervals. The same volume of fresh preheated HBSS was added to keep the volume constant. Samples were centrifuged for 10 min at 12,000 r·min^−1 and the supernatant was analyzed for geniposide by HPLC.
(§5) An UV-HPLC method was used to quantify the geniposide concentrations in the transport studies. The chromatographic conditions consisted of a Purospher Star C18 column (4×200 mm, particle size 5 µm) plus guard column. Geniposide samples were analyzed with UV detection (λ = 238 nm) and the mobile phase was composed of acetonitrile and water (16∶84, v/v). The mobile phase was pumped at a flow rate of 1 mL·min^−1 and the injected volume was 20 µL. In these conditions, the retention time of geniposide was 8.5 min.
(§6) The apparent permeability coefficients (Papp) for geniposide were calculated according to the following equation (2): [drawing 2] where Papp is the permeability, dQ/dt is the apparent appearance rate of drug in the receiver side calculated using linear regression of amounts in the receiver chamber versus time, C is the drug concentration in the donor chamber and S is the surface area of the monolayer. The efflux ratio (ER) was calculated according to the following equation (3): [drawing 3]

HNEC monolayer [3] = experiment: Transport of geniposide across the HNEC monolayer; type: in vitro ADME, human; conditions: for B→A fluxes of geniposide / A→B fluxes of geniposide: P<0.05 vs control
Experimental: as §1, §2, §3, §4, §5, §6

HNECs [4] = experiment: MTT cytotoxicity assay on HNECs; type: cell-based, human; conditions: 24 h
Experimental: The cytotoxicity of the main active ingredients in “Xing Nao Jing” on HNECs was evaluated by the methyl thiazolyl tetrazolium (MTT) colorimetric assay. Briefly, 100 µL of 5×10^4 cells·mL^−1 was seeded into 96-well plates. After 24 h, the medium was removed and replaced with a fresh medium containing increasing concentrations of geniposide, borneol, muscone and their combinations for another 24 h. After that, 15 µL of a 5 mg·mL^−1 MTT solution in 100 µL BEGM was added to each well. After 4 h of incubation, the supernatant was discarded and formazan crystals were dissolved in DMSO followed by vigorous mixing. Control wells were incubated with BEGM only and were treated similarly as above. The optical density was determined at 490 nm with a Multiskan Go microplate reader (Thermo, USA). The percent viability of the cells was determined from the absorbance values considering that of the control as 100%.
The percentage of cell toxicity in the MTT assay was calculated by the following equation (1): [drawing 1]

[5] = mice, intravenous administration; cited from earlier work
[6] = cited from earlier work
P-gp = P-gp substrate assessment from bidirectional transport in HNEC monolayer; type: in vitro ADME, human; conditions: HNEC model
Experimental: as §2, §6

[7] = rats, at 3 h; cited from earlier work
actin = experiment: Actin immunostaining of HNEC monolayer (tight junction); type: cell-based, human; conditions: 3 h exposure with geniposide 50 µg·mL^−1, vs control
From the text: Cells cultured on 12-well polyester membrane Transwell clear inserts were stained for actin. […] Fluorescence was visualized on an epifluorescence microscope (IX-71, Olympus, Japan) using a blue filter and images were taken using the analysis software.

HNEC monolayer [8] = experiment: TEER measurement of HNEC monolayer; type: cell-based, human
Experimental: Transepithelial electrical resistance was measured using an EVOM instrument (Millipore Corporation, USA) to check the monolayer integrity. The TEER of untreated cells and cells treated with borneol and muscone was determined in BEGM:DMEM/F12 (1∶1) before the experiment, after the experiment and after 24 h.

[9] = Ge 50 µg·mL^−1 +Bo 27.8 µg·mL^−1
[10] = Ge 50 µg·mL^−1 +Bo 27.8 µg·mL^−1 Mu 4.17 µg·mL^−1
[11] = Ge 50 µg·mL^−1 +Bo 55.6 µg·mL^−1
[12] = Ge 50 µg·mL^−1 +Bo 55.6 µg·mL^−1 Mu 8.34 µg·mL^−1
[13] = Ge 50 µg·mL^−1 +Bo 111.2 µg·mL^−1
[14] = Ge 50 µg·mL^−1 +Bo 111.2 µg·mL^−1 Mu 16.68 µg·mL^−1
[15] = Ge 50 µg·mL^−1 +Mu 4.17 µg·mL^−1
[16] = Ge 50 µg·mL^−1 +Mu 8.34 µg·mL^−1
[17] = Ge 50 µg·mL^−1 +Mu 16.68 µg·mL^−1
[18] = geniposide 50 µg·mL^−1 alone (control)

COC(=O)C1=CO[C@@H](O[C@@H]2O[C@H](CO)[C@@H](O)[C@H](O)[C@H]2O)[C@@H]2C(CO)=CC[C@H]12 [geniposide, Geniposide]
Fluorescence recovery rate R (%)±SD (HNECs [1]; Ge 50 µg·mL^−1 alone (control), 3 h): 33.08±1.74%
Papp A→B at 180 min, 50 µg·mL^−1 [2, 9]: 1.17 ± 0.12 ×10⁻⁶ cm/s
Papp B→A at 180 min, 50 µg·mL^−1 [2, 9]: 1.61 ± 0.034 ×10⁻⁶ cm/s
Papp A→B at 180 min, 50 µg·mL^−1 [2, 10]: 1.43 ± 0.083 ×10⁻⁶ cm/s
Papp B→A at 180 min, 50 µg·mL^−1 [2, 10]: 1.81 ± 0.024 ×10⁻⁶ cm/s
Papp A→B at 180 min, 50 µg·mL^−1 [2, 11]: 1.35 ± 0.086 ×10⁻⁶ cm/s
Papp B→A at 180 min, 50 µg·mL^−1 [2, 11]: 1.92 ± 0.111 ×10⁻⁶ cm/s
Papp A→B at 180 min, 50 µg·mL^−1 [2, 12]: 1.75 ± 0.043 ×10⁻⁶ cm/s
Papp B→A at 180 min, 50 µg·mL^−1 [2, 12]: 1.916 ± 0.019 ×10⁻⁶ cm/s
Papp A→B at 180 min, 50 µg·mL^−1 [2, 13]: 1.99 ± 0.293 ×10⁻⁶ cm/s
Papp B→A at 180 min, 50 µg·mL^−1 [2, 13]: 1.99 ± 0.126 ×10⁻⁶ cm/s
Papp A→B at 180 min, 50 µg·mL^−1 [2, 14]: 1.92 ± 0.049 ×10⁻⁶ cm/s
Papp B→A at 180 min, 50 µg·mL^−1 [2, 14]: 2.39 ± 0.052 ×10⁻⁶ cm/s
Papp A→B at 180 min, 50 µg·mL^−1 [2, 15]: 1.15 ± 0.068 ×10⁻⁶ cm/s
Papp B→A at 180 min, 50 µg·mL^−1 [2, 15]: 1.6 ± 0.021 ×10⁻⁶ cm/s
Papp A→B at 180 min, 50 µg·mL^−1 [2, 16]: 1.61 ± 0.054 ×10⁻⁶ cm/s
Papp B→A at 180 min, 50 µg·mL^−1 [2, 16]: 2.039 ± 0.018 ×10⁻⁶ cm/s
Papp A→B at 180 min, 50 µg·mL^−1 [2, 17]: 1.97 ± 0.108 ×10⁻⁶ cm/s
Papp B→A at 180 min, 50 µg·mL^−1 [2, 17]: 2.104 ± 0.02 ×10⁻⁶ cm/s
Papp A→B at 180 min, 25 µg·mL^−1 ([2]; geniposide 25 µg·mL^−1): 1.27 ± 0.314 ×10⁻⁶ cm/s
Papp B→A at 180 min, 25 µg·mL^−1 ([2]; geniposide 25 µg·mL^−1): 1.35 ± 0.113 ×10⁻⁶ cm/s
efflux ratio at 180 min, 25 µg·mL^−1 ([2]; geniposide 25 µg·mL^−1, read-out: ER±SD(B→A/A→B)): 1.1 ± 0.256
Papp A→B at 180 min, 50 µg·mL^−1 [2, 18]: 1.22 ± 0.015 ×10⁻⁶ cm/s
Papp B→A at 180 min, 50 µg·mL^−1 [2, 18]: 1.26 ± 0.084 ×10⁻⁶ cm/s
efflux ratio at 180 min, 50 µg·mL^−1 ([2]; geniposide 50 µg·mL^−1 alone (control), read-out: ER±SD(B→A/A→B)): 1.03 ± 0.076
Papp A→B at 180 min, 100 µg·mL^−1 ([2]; geniposide 100 µg·mL^−1): 1.25 ± 0.074 ×10⁻⁶ cm/s
Papp B→A at 180 min, 100 µg·mL^−1 ([2]; geniposide 100 µg·mL^−1): 1.19 ± 0.104 ×10⁻⁶ cm/s
efflux ratio at 180 min, 100 µg·mL^−1 ([2]; geniposide 100 µg·mL^−1, read-out: ER±SD(B→A/A→B)): 0.951 ± 0.132
Papp at 180 min ([2]; HNEC monolayer, geniposide 25-100 µg·mL^−1, read-out: permeability coefficients): 1.22 to 1.27 ×10⁻⁶ cm/s
ER±SD(B→A/A→B) (HNEC monolayer [3]; [9]): 1.388±0.162
ER±SD(B→A/A→B) (HNEC monolayer [3]; [10]): 1.268±0.057
ER±SD(B→A/A→B) (HNEC monolayer [3]; [11]): 1.429±0.149
ER±SD(B→A/A→B) (HNEC monolayer [3]; [12]): 1.092±0.023
ER±SD(B→A/A→B) (HNEC monolayer [3]; [13]): 1.012±0.106
ER±SD(B→A/A→B) (HNEC monolayer [3]; [14]): 1.245±0.026
ER±SD(B→A/A→B) (HNEC monolayer [3]; [15]): 1.400±0.071
ER±SD(B→A/A→B) (HNEC monolayer [3]; [16]): 1.268±0.033
ER±SD(B→A/A→B) (HNEC monolayer [3]; [17]): 1.072±0.069
B→A fluxes of geniposide (HNEC monolayer [3]; Ge 50 µg·mL^−1 combined with borneol (27.8, 55.6, 111.2 µg·mL^−1)): significantly increased
B→A fluxes of geniposide (HNEC monolayer [3]; Ge 50 µg·mL^−1 combined with muscone (4.17, 8.34, 16.68 µg·mL^−1)): significantly increased
A→B fluxes of geniposide (HNEC monolayer [3]; Ge 50 µg·mL^−1 in presence of borneol (111.2 µg·mL^−1)): significantly increased
A→B fluxes of geniposide (HNEC monolayer [3]; Ge 50 µg·mL^−1 in presence of muscone (8.34, 16.68 µg·mL^−1)): significantly increased
permeability values in both directions (HNEC monolayer [3]; Ge 50 µg·mL^−1 in the presence of borneol and muscone (Bo 27.8/Mu 4.17, Bo 55.6/Mu 8.34, Bo 111.2/Mu 16.68 µg·mL^−1), P<0.05): an increasing of permeability values in both directions was observed in a concentration-dependent manner
(B→A)/(A→B) permeability ER (HNEC monolayer [3]; geniposide 25, 50 and 100 µg·mL^−1): less than 2
concentration range with no cell cytotoxicity (HNECs [4]): 0 to 400000 ng/mL
brain/blood drug ratio [5]: about 10%
apparent partition coefficient between octanol and water [6]: about 0.108
P-gp substrate (P-gp): not a P-gp substrate
absorption percentage in the intestinal tract [7]: about 15.9%

C[C@@H]1CCCCCCCCCCCCC(=O)C1 [muscone, Muscone]
Fluorescence recovery rate R (%)±SD (HNECs [1]; Mu 4.17 µg·mL^−1 with Ge 50 µg·mL^−1, 3 h): 36.43±3.37%
Fluorescence recovery rate R (%)±SD (HNECs [1]; Mu 8.34 µg·mL^−1 with Ge 50 µg·mL^−1, 3 h): 45.45±1.68 %
Fluorescence recovery rate R (%)±SD (HNECs [1]; Mu 16.68 µg·mL^−1 with Ge 50 µg·mL^−1, 3 h): 49.77±5.63 %
levels of the TJ proteins localized in the cell-cell junctions (actin): decreased
TEER after washing and incubating with BEGM:DMEM/F12 (1∶1) for 24 h (HNEC monolayer [8]; after permeation experiment): increased again
TEER decrease during permeation studies, of the initial value (HNEC monolayer [8]; borneol 55.6, 111.2 µg·mL^−1, muscone 8.34, 16.68 µg·mL^−1, and combinations, P<0.05): 10–20%
